Laboratory results reported in paper PMC5218480 (PLoS ONE, 2017).

System: MV-4-11 cells
Assay: Gene expression microarray analysis (Affymetrix PrimeView) and GSEA
Format: cell-based, human
Design: RFU PODN (11730768_x_at) / Fold change /veh PODN (11730768_x_at) / RFU LINC00158 (11744669_a_at) / Fold change /veh LINC00158 (11744669_a_at) / RFU DUSP10 (11751237_a_at) / Fold change /veh DUSP10 (11751237_a_at) / RFU ID3 (11757404_x_at) / Fold change /veh ID3 (11757404_x_at) / RFU PLEKHG5 (11737974_s_at) / Fold change /veh PLEKHG5 (11737974_s_at) / RFU LRRC4B (11730491_at) / Fold change /veh LRRC4B (11730491_at) / RFU GIMAP4 (11747438_a_at) / Fold change /veh GIMAP4 (11747438_a_at) / RFU KRT8 (11758183_x_at) / Fold change /veh KRT8 (11758183_x_at) / RFU CNN1 (11734310_a_at) / Fold change /veh CNN1 (11734310_a_at) / RFU VPS37D (11726825_at) / Fold change /veh VPS37D (11726825_at) / RFU C10orf10 (11716522_x_at) / Fold change /veh C10orf10 (11716522_x_at) / RFU KIR2DL2 /// KIR2DL4 /// KIR2DL5A /// KIR2DL5B /// KIR2DS1 /// KIR2DS2 /// KIR2DS3 /// KIR2DS4 /// KIR3DL3 /// KIR3DL3 /// KIR3DS1 (11738374_at) / Fold change /veh KIR2DL2 /// KIR2DL4 /// KIR2DL5A /// KIR2DL5B /// KIR2DS1 /// KIR2DS2 /// KIR2DS3 /// KIR2DS4 /// KIR3DL3 /// KIR3DL3 /// KIR3DS1 (11738374_at) / RFU C1QL1 (11718748_at) / Fold change /veh C1QL1 (11718748_at) / RFU TMPRSS4 (11747572_a_at) / Fold change /veh TMPRSS4 (11747572_a_at) / RFU HAMP (11756126_x_at) / Fold change /veh HAMP (11756126_x_at) / RFU RNFT2 (11725882_a_at) / Fold change /veh RNFT2 (11725882_a_at) / RFU NR4A2 (11747474_a_at) / Fold change /veh NR4A2 (11747474_a_at) / RFU ABCC12 (11746883_a_at) / Fold change /veh ABCC12 (11746883_a_at) / RFU TMEM136 (11760407_x_at) / Fold change /veh TMEM136 (11760407_x_at) / RFU CLDN22 /// WWC2 (11732394_at) / Fold change /veh CLDN22 /// WWC2 (11732394_at) / RFU HLA-DPB1 (11760878_x_at) / Fold change /veh HLA-DPB1 (11760878_x_at) / RFU SPINT1 (11716480_a_at) / Fold change /veh SPINT1 (11716480_a_at) / RFU GAP43 (11754022_s_at) / Fold change /veh GAP43 (11754022_s_at) / RFU A4GNT (11735810_at) / Fold change /veh A4GNT (11735810_at) / RFU PRB3 (11715151_x_at) / Fold change /veh PRB3 (11715151_x_at) / RFU TUBB4B (11761932_at) / Fold change /veh TUBB4B (11761932_at) / RFU CAPN14 (11732068_a_at) / Fold change /veh CAPN14 (11732068_a_at) / RFU TMCC2 (11721928_a_at) / Fold change /veh TMCC2 (11721928_a_at) / RFU IRGQ (11745062_a_at) / Fold change /veh IRGQ (11745062_a_at) / RFU FAM174B (11720279_a_at) / Fold change /veh FAM174B (11720279_a_at) / RFU TMPRSS4 (11748680_a_at) / Fold change /veh TMPRSS4 (11748680_a_at) / RFU FAM212B (11763350_a_at) / Fold change /veh FAM212B (11763350_a_at) / RFU PLEKHG5 (11743358_a_at) / Fold change /veh PLEKHG5 (11743358_a_at) / RFU ZSCAN30 (11745921_a_at) / Fold change /veh ZSCAN30 (11745921_a_at) / RFU CMKLR1 (11741424_a_at) / Fold change /veh CMKLR1 (11741424_a_at) / RFU LOC101060620 /// MAPK8IP1 (11723275_at) / Fold change /veh LOC101060620 /// MAPK8IP1 (11723275_at) / RFU SPTSSB (11747773_x_at) / Fold change /veh SPTSSB (11747773_x_at) / RFU PRSS12 (11739890_at) / Fold change /veh PRSS12 (11739890_at) / RFU BIN1 (11741810_x_at) / Fold change /veh BIN1 (11741810_x_at) / RFU WNT11 (11732464_a_at) / Fold change /veh WNT11 (11732464_a_at) / RFU C10orf10 (11716521_a_at) / Fold change /veh C10orf10 (11716521_a_at) / RFU C5orf56 (11738089_at) / Fold change /veh C5orf56 (11738089_at) / RFU CYB561 (11721691_x_at) / Fold change /veh CYB561 (11721691_x_at) / RFU ANKRD19P (11752326_a_at) / Fold change /veh ANKRD19P (11752326_a_at) / RFU OR2T12 /// OR2T33 /// OR2T8 (11738714_s_at) / Fold change /veh OR2T12 /// OR2T33 /// OR2T8 (11738714_s_at) / RFU VCAN (11748164_a_at) / Fold change /veh VCAN (11748164_a_at) / RFU JSRP1 (11732532_at) / Fold change /veh JSRP1 (11732532_at) / RFU KRTAP10-11 (11738290_x_at) / Fold change /veh KRTAP10-11 (11738290_x_at) / RFU MYO3A (11730013_a_at) / Fold change /veh MYO3A (11730013_a_at) / RFU EBF3 (11725865_a_at) / Fold change /veh EBF3 (11725865_a_at) / RFU CAMK2N1 (11719241_x_at) / Fold change /veh CAMK2N1 (11719241_x_at) / RFU C5orf56 (11738088_a_at) / Fold change /veh C5orf56 (11738088_a_at) / RFU OLFML3 (11715873_a_at) / Fold change /veh OLFML3 (11715873_a_at) / RFU LOC100653217 /// NTM (11731650_a_at) / Fold change /veh LOC100653217 /// NTM (11731650_a_at) / RFU MAPK11 (11762145_a_at) / Fold change /veh MAPK11 (11762145_a_at) / RFU FIZ1 (11724087_x_at) / Fold change /veh FIZ1 (11724087_x_at) / RFU OASL (11726364_x_at) / Fold change /veh OASL (11726364_x_at) / RFU SOX15 (11748057_x_at) / Fold change /veh SOX15 (11748057_x_at) / RFU CD79A (11719716_a_at) / Fold change /veh CD79A (11719716_a_at) / RFU HIST1H1D (11736915_at) / Fold change /veh HIST1H1D (11736915_at) / RFU CASKIN2 (11723855_a_at) / Fold change /veh CASKIN2 (11723855_a_at) / RFU LOC730098 (11760151_x_at) / Fold change /veh LOC730098 (11760151_x_at) / RFU OR4N2 (11742367_at) / Fold change /veh OR4N2 (11742367_at) / RFU PRRT2 (11749266_a_at) / Fold change /veh PRRT2 (11749266_a_at) / RFU SNX32 (11753110_a_at) / Fold change /veh SNX32 (11753110_a_at) / RFU CDHR5 (11726645_a_at) / Fold change /veh CDHR5 (11726645_a_at) / RFU RCAN1 (11760418_a_at) / Fold change /veh RCAN1 (11760418_a_at) / RFU FAM167A (11723789_a_at) / Fold change /veh FAM167A (11723789_a_at) / RFU FAM26E (11764081_at) / Fold change /veh FAM26E (11764081_at) / RFU ISYNA1 (11749810_s_at) / Fold change /veh ISYNA1 (11749810_s_at) / RFU ACY1 (11761880_at) / Fold change /veh ACY1 (11761880_at) / RFU 11764098_at / Fold change /veh 11764098_at / RFU SAMD14 (11745864_x_at) / Fold change /veh SAMD14 (11745864_x_at) / RFU NPB (11741838_a_at) / Fold change /veh NPB (11741838_a_at) / RFU TMPRSS6 (11731388_a_at) / Fold change /veh TMPRSS6 (11731388_a_at) / RFU KRTAP10-2 (11738614_at) / Fold change /veh KRTAP10-2 (11738614_at) / RFU ARHGAP8 /// PRR5-ARHGAP8 (11727945_x_at) / Fold change /veh ARHGAP8 /// PRR5-ARHGAP8 (11727945_x_at) / RFU KRTAP5-7 /// NADSYN1 (11734609_at) / Fold change /veh KRTAP5-7 /// NADSYN1 (11734609_at) / RFU RASL12 (11751679_a_at) / Fold change /veh RASL12 (11751679_a_at) / RFU CDKN2B (11736163_a_at) / Fold change /veh CDKN2B (11736163_a_at) / RFU PRF1 (11729649_at) / Fold change /veh PRF1 (11729649_at) / RFU, ZNF638 /// ZNF638-IT1 / Fold change vs veh, ZNF638 /// ZNF638-IT1 / RFU, PANK3 / Fold change vs veh, PANK3 / RFU, SH3YL1 / Fold change vs veh, SH3YL1 / RFU, ZEB2 / Fold change vs veh, ZEB2 / RFU, NRIP1 / Fold change vs veh, NRIP1 / RFU, PTTG1IP / Fold change vs veh, PTTG1IP / RFU, CAPN2 / Fold change vs veh, CAPN2 / RFU, MED14 / Fold change vs veh, MED14 / RFU, SNORA58 / Fold change vs veh, SNORA58 / RFU, C1orf63 / Fold change vs veh, C1orf63 / RFU, LRRFIP1 / Fold change vs veh, LRRFIP1 / RFU, NDUFAF7 / Fold change vs veh, NDUFAF7 / RFU, SLC12A2 / Fold change vs veh, SLC12A2 / RFU, IBTK / Fold change vs veh, IBTK / RFU, ESF1 / Fold change vs veh, ESF1 / Fold change vs veh, TMEM50B / RFU, TAOK1 / Fold change vs veh, TAOK1 / RFU, ACBD3 / Fold change vs veh, ACBD3 / RFU, TMA16 / Fold change vs veh, TMA16 / RFU, RWDD3 / Fold change vs veh, RWDD3 / RFU, BCAT1 / Fold change vs veh, BCAT1 / RFU, EDEM3 / Fold change vs veh, EDEM3 / RFU, TMEM33 / Fold change vs veh, TMEM33 / RFU, WDR75 / Fold change vs veh, WDR75 / RFU, AHCTF1 / Fold change vs veh, AHCTF1 / RFU, TFRC / Fold change vs veh, TFRC / RFU, ZDHHC17 / Fold change vs veh, ZDHHC17 / RFU, NOM1 / Fold change vs veh, NOM1 / RFU, ARL8B / Fold change vs veh, ARL8B / RFU, ZBTB11 / Fold change vs veh, ZBTB11 / RFU, TAMM41 / Fold change vs veh, TAMM41 / RFU, KIAA1704 /// LOC100996395 / Fold change vs veh, KIAA1704 /// LOC100996395 / RFU, ING1 / Fold change vs veh, ING1 / RFU, TRMT61B / Fold change vs veh, TRMT61B / RFU, FUBP3 / Fold change vs veh, FUBP3 / RFU, TP53 / Fold change vs veh, TP53 / RFU, TNKS2 / Fold change vs veh, TNKS2 / RFU, ZFP14 / Fold change vs veh, ZFP14 / RFU, ACTR2 / Fold change vs veh, ACTR2 / RFU, PPP3R1 / Fold change vs veh, PPP3R1 / RFU, PIK3R1 / Fold change vs veh, PIK3R1 / RFU, HNRNPA1 / Fold change vs veh, HNRNPA1 / RFU, RNF170 / Fold change vs veh, RNF170 / RFU, ZNF28 / Fold change vs veh, ZNF28 / RFU, RNGTT / Fold change vs veh, RNGTT / RFU, OGT / Fold change vs veh, OGT / RFU, BRD1 / Fold change vs veh, BRD1 / RFU, MARS / Fold change vs veh, MARS / RFU, ZNF655 / Fold change vs veh, ZNF655 / RFU, FAHD1 / Fold change vs veh, FAHD1 / RFU, BDP1 / Fold change vs veh, BDP1 / RFU, LRRCC1 / Fold change vs veh, LRRCC1 / RFU, ARID1A / Fold change vs veh, ARID1A / RFU, ZNF146 / Fold change vs veh, ZNF146 / RFU, ZNF330 / Fold change vs veh, ZNF330 / RFU, GPN3 / Fold change vs veh, GPN3 / RFU, C9orf123 / Fold change vs veh, C9orf123 / RFU, N4BP2L2 / Fold change vs veh, N4BP2L2 / RFU, ARFIP1 / Fold change vs veh, ARFIP1 / RFU, FAM179B / Fold change vs veh, FAM179B / RFU, BCL10 / Fold change vs veh, BCL10 / RFU, UHRF1BP1L / Fold change vs veh, UHRF1BP1L / RFU, BET1 / Fold change vs veh, BET1 / RFU, CNOT2 / Fold change vs veh, CNOT2 / RFU, ZNF268 / Fold change vs veh, ZNF268 / Fold change vs veh, ZNF507 / RFU, DGCR2 / Fold change vs veh, DGCR2 / RFU, WDSUB1 / Fold change vs veh, WDSUB1 / Fold change vs veh, HSP90B1 /// MIR3652 / RFU, ADSS / Fold change vs veh, ADSS / RFU, GK / Fold change vs veh, GK / RFU, ZNF148 / Fold change vs veh, ZNF148 / RFU, TAF9 / Fold change vs veh, TAF9 / RFU, SLC1A5 / Fold change vs veh, SLC1A5 / RFU, SLMO2 / Fold change vs veh, SLMO2 / RFU, ABCC4 / Fold change vs veh, ABCC4 / RFU, LOC101060439 /// RAP1B / Fold change vs veh, LOC101060439 /// RAP1B / RFU, RFX7 / Fold change vs veh, RFX7 / RFU, GTPBP10 / Fold change vs veh, GTPBP10 / RFU, CNEP1R1 / Fold change vs veh, CNEP1R1 / RFU, BIVM-ERCC5 /// ERCC5 / Fold change vs veh, BIVM-ERCC5 /// ERCC5 / RFU, ILF3 / Fold change vs veh, ILF3 / RFU 11762660_at / Fold change /veh 11762660_at / RFU VCAN (11757783_s_at) / Fold change /veh VCAN (11757783_s_at) / RFU DDX43 (11728927_at) / Fold change /veh DDX43 (11728927_at) / RFU KRT8 (11758188_x_at) / Fold change /veh KRT8 (11758188_x_at) / RFU NKD1 (11759106_at) / Fold change /veh NKD1 (11759106_at) / RFU SRD5A1 (11742802_a_at) / Fold change /veh SRD5A1 (11742802_a_at) / RFU TPSAB1 /// TPSB2 (11721975_s_at) / Fold change /veh TPSAB1 /// TPSB2 (11721975_s_at) / RFU GSTM3 (11746129_a_at) / Fold change /veh GSTM3 (11746129_a_at) / RFU IL23R (11737362_x_at) / Fold change /veh IL23R (11737362_x_at) / RFU TMEM51 (11727254_a_at) / Fold change /veh TMEM51 (11727254_a_at) / RFU PIWIL2 (11732686_x_at) / Fold change /veh PIWIL2 (11732686_x_at) / RFU ORM1 (11744905_x_at) / Fold change /veh ORM1 (11744905_x_at) / RFU CCDC152 (11743942_at) / Fold change /veh CCDC152 (11743942_at) / RFU ECM1 (11717891_a_at) / Fold change /veh ECM1 (11717891_a_at) / RFU IL23R (11748794_a_at) / Fold change /veh IL23R (11748794_a_at) / RFU TNFAIP8L3 (11732012_x_at) / Fold change /veh TNFAIP8L3 (11732012_x_at) / RFU MBOAT4 (11741988_at) / Fold change /veh MBOAT4 (11741988_at) / RFU 11764193_at / Fold change /veh 11764193_at / RFU TMEM53 (11763286_at) / Fold change /veh TMEM53 (11763286_at) / RFU MAGEB2 (11727129_at) / Fold change /veh MAGEB2 (11727129_at) / RFU TMEM200A (11744735_a_at) / Fold change /veh TMEM200A (11744735_a_at) / RFU CCDC152 (11751479_a_at) / Fold change /veh CCDC152 (11751479_a_at) / RFU FAM211A (11726209_a_at) / Fold change /veh FAM211A (11726209_a_at) / RFU RGS16 (11746705_a_at) / Fold change /veh RGS16 (11746705_a_at) / RFU VCAN (11755009_s_at) / Fold change /veh VCAN (11755009_s_at) / RFU RHOB (11743442_s_at) / Fold change /veh RHOB (11743442_s_at) / RFU RGS16 (11720943_a_at) / Fold change /veh RGS16 (11720943_a_at) / RFU RGS16 (11720944_at) / Fold change /veh RGS16 (11720944_at) / RFU, VPS4B / Fold change vs veh, VPS4B / RFU, CREB1 / Fold change vs veh, CREB1 / RFU, DNAJC13 / Fold change vs veh, DNAJC13 / RFU, GNAQ / Fold change vs veh, GNAQ / RFU, CDK5R1 / Fold change vs veh, CDK5R1 / RFU, ZRANB3 / Fold change vs veh, ZRANB3 / RFU, CUL4A / Fold change vs veh, CUL4A / RFU, CCNY / Fold change vs veh, CCNY / RFU, UFL1 / Fold change vs veh, UFL1 / RFU, COG3 / Fold change vs veh, COG3 / RFU, DIAPH2 / Fold change vs veh, DIAPH2 / RFU, SKA2 / Fold change vs veh, SKA2 / RFU, AFF3 / Fold change vs veh, AFF3 / RFU, LMF1 / Fold change vs veh, LMF1 / RFU, IPO11 / Fold change vs veh, IPO11 / RFU, DFFB / Fold change vs veh, DFFB / RFU, FOXP1 / Fold change vs veh, FOXP1 / RFU, CARD8 / Fold change vs veh, CARD8 / RFU, STRN3 / Fold change vs veh, STRN3 / RFU, ADK / Fold change vs veh, ADK / RFU, RASSF2 / Fold change vs veh, RASSF2 / RFU, WIPF1 / Fold change vs veh, WIPF1 / RFU, LARP1B / Fold change vs veh, LARP1B / RFU, RASA1 / Fold change vs veh, RASA1 / RFU, RB1 / Fold change vs veh, RB1 / RFU, PPFIA1 / Fold change vs veh, PPFIA1 / RFU, MAT2A / Fold change vs veh, MAT2A / RFU, CCT5 / Fold change vs veh, CCT5 / RFU, WDR92 / Fold change vs veh, WDR92 / RFU, CUX1 / Fold change vs veh, CUX1 / RFU, TTC7A / Fold change vs veh, TTC7A / RFU, TMEM135 / Fold change vs veh, TMEM135 / RFU, DEPTOR / Fold change vs veh, DEPTOR / RFU, CPM / Fold change vs veh, CPM / RFU, DNAJB6 / Fold change vs veh, DNAJB6 / RFU, CACNA2D3 / Fold change vs veh, CACNA2D3 / RFU, DTX4 / Fold change vs veh, DTX4 / RFU, TFCP2 / Fold change vs veh, TFCP2 / RFU, GMCL1 /// GMCL1P1 / Fold change vs veh, GMCL1 /// GMCL1P1 / RFU, AEBP2 / Fold change vs veh, AEBP2 / RFU, SNHG1 /// SNORD22 /// SNORD25 /// SNORD26 /// SNORD27 /// SNORD28 /// SNORD29 /// SNORD31 / Fold change vs veh, SNHG1 /// SNORD22 /// SNORD25 /// SNORD26 /// SNORD27 /// SNORD28 /// SNORD29 /// SNORD31 / Fold change (Aza/veh), C12orf56 (ProbeSet 11735607_a_at) / Fold change (ACY-1035/veh), C12orf56 (ProbeSet 11735607_a_at) / Fold change (Aza/veh), FGFR1OP (ProbeSet 11751329_s_at) / Fold change (ACY-1035/veh), FGFR1OP (ProbeSet 11751329_s_at) / Fold change (Aza/veh), VPS36 (ProbeSet 11739960_a_at) / Fold change (ACY-1035/veh), VPS36 (ProbeSet 11739960_a_at) / RFU SYPL1 (11715823_x_at) / Fold change /veh SYPL1 (11715823_x_at) / RFU IGFBP7 (11715501_s_at) / Fold change /veh IGFBP7 (11715501_s_at) / RFU REEP3 (11722064_at) / Fold change /veh REEP3 (11722064_at) / RFU IGLL1 (11728026_x_at) / Fold change /veh IGLL1 (11728026_x_at): dose or concentration left out as unconfirmed
Conditions: ProbeSet 11763895_x_at; LIST B

In the case of Nc1ncn([C@@H]2O[C@H](CO)[C@@H](O)[C@H]2O)c(=O)n1 [azacitidine], the “RFU, SNORA58” value was 17.25 RFU.
